Assay type in all cases: in vivo
The test system of assay [1] is Corynespora cassiicora. Put plainly: Test Example 5: penetration effect against cucumber leaf spot with different surfactant concentrations. Conditions: isofetamid 200 ppm without component (b); abaxial inoculation after 3 days. How it is done:
Cucumber (cultivar: […] The cucumber was cultivated in a greenhouse for 3 days, and the leaf abaxial side was sprayed and inoculated with a suspension of conidia of Corynespora cassiicora, and the cucumber was kept under humidified chamber conditions at 23° C. for 24 hours. […] a: lesion area ratio in treated plot, b: lesion area ratio in non-treated plot

Assay [2] deals with Corynesbora cassiicora. The assay is described as follows: Test Example 2: penetration effect against cucumber leaf spot. Conditions: isofetamid 400 ppm + product 0.05 wt %, leaf adaxial surface, 1,000 L/ha; abaxial inoculation after 4 days; examined 7 days after inoculation.
Description: Cucumber (cultivar: Natsusuzumi) was cultivated in a polyethylene pot having a diameter of 7.5 cm, and when the cucumber reached 1.5-leaf stage, an isofetamid 400 ppm solution prepared by adding an aqueous solution (0.05 wt %) of each of products containing the component (b) as identified in Table 2 to isofetamid, was applied to the leaf adaxial surface by means of a spray gun in an amount corresponding to 1,000 L/ha. The cucumber was cultivated in a greenhouse for 4 days, and the leaf abaxial surface was sprayed and inoculated with a suspension of conidia of Corynesbora cassiicora, and the cucumber was kept under humidified chamber conditions at 23° C. for 24 hours. Thereafter, the cucumber was kept in a thermostatic chamber at 20° C., and 7 days after the inoculation, the lesion area ratio on the first leaf was examined, and the control value was calculated based on the following formula. Control value=(1−a/b)×100
The test system of assay [3] is Sphaerotheca fulidinea. The assay is described as follows: Test Example 1: penetration effect against cucumber powdery mildew. Conditions: isofetamid 400 ppm + product 0.05 wt %, leaf adaxial surface, 1,000 L/ha, abaxial inoculation after 4 days, No addition = without component (b). The method, then: Cucumber (cultivar: Sagamihanjiro Fushinari) was cultivated in a polyethylene pot having a diameter of 7.5 cm, and when the cucumber reached 1.5-leaf stage, an isofetamid 400 ppm solution prepared by adding an aqueous solution (0.05 wt %) of each of products containing the component (b) as identified in Tables 1-1 to 1-6 to isofetamid, was applied to the leaf adaxial surface by means of a spray gun in an amount of 1,000 L/ha (20 ml/0.2 m^2). After the chemical solution dried, the cucumber was cultivated in a greenhouse for 4 days, the leaf abaxial surface was sprayed and inoculated with a suspension of conidia of Sphaerotheca fulidinea, and the cucumber was cultivated in a room at 22° C. under illumination for 7 to 8 days. The lesion area ratio on the abaxial surface of the first leaf was examined, and the control value was calculated based on the following formula. In Tables, “no addition” means the above treatment without adding the component (b) (the same applies hereinafter). Control value=(1−a/b)×100
(§1) a: lesion area ratio in treated plot, b: lesion area ratio in non-treated plot

Assay [4] deals with Corynespora cassiicora. Put plainly: Test Example 7: residual effect against cucumber leaf spot. Conditions: isofetamid 200 ppm + product 0.05 wt %, four-leaf stage, 1,000 L/ha; inoculation after 7 days. The method, then:
Cucumber (cultivar: […] After the chemical solution dried, the cucumber was cultivated in a greenhouse for 7 days, and the cucumber was sprayed and inoculated with a suspension of conidia of Corynespora cassiicora, and kept under humidified chamber conditions at 23° C. for 24 hours. Thereafter, the cucumber was cultivated in a room at 20° C. under illumination for 7 days. The lesion area ratio on the first leaf was examined, and the control value was calculated based on the following formula. The obtained results are shown in Table 7. […] a: lesion area ratio in treated plot, b: lesion area ratio in non-treated plot

For assay [5], the system named is Corynesbora cassiicora. The assay is described as follows: Test Example 3: curative effect against cucumber leaf spot. Conditions: inoculated 24 hours before treatment; isofetamid 400 ppm + product 0.05 wt %, 1,000 L/ha; examined 7 days after inoculation. An excerpt:
Cucumber (cultivar: […] The leaf was air-dried, and an isofetamid 400 ppm solution prepared by adding an aqueous solution (0.05 wt %) of each of products containing the component (b) as identified in Table 3 to isofetamid, was applied by means of a spray gun in an amount corresponding to 1,000 L/ha. […] a: lesion area ratio in treated plot, b: lesion area ratio in non-treated plot

Assay [6] relates to Sphaerotheca fulidinea. The assay is described as follows: Test Example 4: rainfastness against cucumber powdery mildew. The conditions noted are these: isofetamid 200 ppm + product 0.05 wt %, 1,000 L/ha; after 2 days rainfall 40 mm per hour for one hour, then adaxial inoculation. How it is done: Cucumber (cultivar: […] After the chemical solution dried, the cucumber was cultivated in a greenhouse for 2 days, and rainfall treatment (rainfall intensity: 40 mm per hour) was carried out by means of an artificial rainfall apparatus for one hour, and after drying, the leaf adaxial surface was sprayed and inoculated with a suspension of conidia of Sphaerotheca fulidinea, and the cucumber was cultivated in a room at 20° C. under illumination for 7 days. The lesion area ratio on the adaxial surface of the first leaf was examined, and the control value was calculated based on the following formula. […] a: lesion area ratio in treated plot, b: lesion area ratio in non-treated plot

The test system of assay [7] is Sphaerotheca fulidinea. Put plainly: Test Example 6: penetration effect against cucumber powdery mildew. Conditions: isofetamid 400 ppm + product 0.025 wt %, leaf adaxial surface, 1,000 L/ha; abaxial inoculation after 4 days.
Description: Cucumber (cultivar: Sagamihanjiro Fushinari) was cultivated in a polyethylene pot having a diameter of 7.5 cm, and when the cucumber reached 1.5-leaf stage, an isofetamid 400 ppm solution prepared by adding an aqueous solution (0.025 wt %) of each of products containing the component (b) as identified in Table 6 to isofetamid was applied to the leaf adaxial surface by means of a spray gun in an amount corresponding to 1,000 L/ha. The cucumber was cultivated in a greenhouse for 4 days, and then the leaf abaxial side was sprayed and inoculated with a suspension of conidia of Sphaerotheca fulidinea, and the cucumber was cultivated in a room at 22° C. under illumination for 7 days. The lesion area ratio on the abaxial side of the first leaf was examined, and the control value was calculated based on the following formula. Control value=(1−a/b)×100
as §1

From patent publication US11412733B2, “Method for enhancing plant disease controlling effects of isofetamid and method for controlling plant diseases” (ISHIHARA SANGYO KAISHA, LTD., priority 2016, dated 2022) come the findings set out here.

On to `Cc1cc(OC(C)C)ccc1C(=O)C(C)(C)NC(=O)c1sccc1C` [No addition, isofetamid], for which the Control value in the assay on Corynespora cassiicora [1] was 66.7; with Corynesbora cassiicora [2], 68; in the assay on Sphaerotheca fulidinea [3] (Table 1-1), 0; with Sphaerotheca fulidinea [3] (Table 1-2), 6; with Sphaerotheca fulidinea [3] (Table 1-3), 4; with Sphaerotheca fulidinea [3] (Table 1-4), 11. The Control value with Sphaerotheca fulidinea [3] (Table 1-5) stood at 14; with Sphaerotheca fulidinea [3] (Table 1-6) it was 68; in the assay with Corynespora cassiicora [4], 80; with Corynesbora cassiicora [5], 0; in the assay on Sphaerotheca fulidinea [6], 62; with Sphaerotheca fulidinea [7] it was 54.6.
